# Data taken from US20140243391A1, “PHOSPHOLIPID-DETERGENT CONJUGATES AND USES THEREOF” (CENTRE NATIONAL DE LA RECHERCHE SCIENTIFIQUE, priority 2011, published 2014).
# “And” between values parts separate entries of the source, which are not always exact repeats. Equal entries are not always repeated. Where two headings read alike, the source gives them in different places.
# What was measured:
# [1] = Light scattering: particle size and zeta potential of lipoplexes; assay type: physicochemical; conditions: pCMVLuc lipoplexes, 5% glucose, N/P 3, 25° C.
# Method: The average particle size of the liposomes and lipoplexes was measured by photon correlation spectroscopy using a Zetasizer nanoZS apparatus (Malvern Instruments, Paris, France). All measurements were conducted at 25° C. Data were analyzed using the multimodal number distribution software supplied with the instrument. For the preparation of lipoplexes, lipids were freshly solubilized in ethanol (1.24 mM) and deposited (60 μL) at the bottom of a 1.5 mL eppendorf tube. Volatiles were removed under reduced pressure to obtain a dry film. Typically, 404 μL of 60 μM solution of pCMVLuc in 4.5% glucose was added to the lipid. After 30 seconds vortexing and 15 minutes standing at room temperature, the complexes were diluted in 4.5 glucose (1096 μL) for measurements. Value for each sample is the mean of triplicate determinations (±SD).
# BHK-21 cells [2] = experiment: pDNA (pCMVLuc) transfection in BHK-21 cells; assay type: cell-based, Syrian hamster; conditions: for pDNA transfection efficiency, in words: BHK-21, pCMVLuc, 10% FCS, N/P 1, 3, 5
# Method: (§1) Lipids were freshly solubilized in ethanol at 1.24 mM concentration. Typically, 40.40 μL of 60 μM solution of DNA (pCMVLuc) in 4.5% glucose was added to the lipid (either 2.00, 5.85 or 9.75 μL deposited at the bottom of a 500 μL eppendorf tube and dried under vacuum). After gentle vortex agitation (30 sec), the complexes were allowed to stand at room temperature for 30 min before addition (10 μL, i.e. 0.2 μg DNA) into each well (triplicate). Cells were then let to grow in the incubator without further handling. Luciferase gene expression was assessed 24 h later using a commercial kit according to the manufacturer's protocol (Promega, Charbonnières, France). Cells were washed with PBS (100 μL) and lyzed with the Promega lysis buffer (20 μL). After agitation for 15 min, PBS (150 μL) was added. A 5 μL aliquot was transferred to a white microplate and luminescence was recorded for 1 sec with a luminometer (Berthold Centro LB960 XS, Thoiry, France) upon addition of the luciferin substrate (35 μL). Value for each sample is the mean of triplicate determinations (±SD).
# The ability to transfect siRNA into U87Luc cells and pCMVLuc pDNA into BHK-21 was assessed for each synthetized analogue as shown in parts A and B hereabove.
# [3] = tested on: A549, Calu-3, and NCI-H292 cell line; experiment: pDNA transfection in pulmonary cell lines, statements not tied to one line; assay type: cell-based; conditions: whatever the cell line considered, pCMVLuc, N/P 1-5
# Method: as §1
# The ability of compounds 1-9 to transfect plasmid DNA was assessed for the following cell lines: A549 cells (alveolar, human lung carcinoma), Calu-3 cells (bronchial, epithelial lung adenocarcinoma), and NCI-H292 cells (bronchial, human lung mucoepidermoid carcinoma). The results concerning transfection activity and LDH release for compounds 1 to 9 are shown in FIGS. 19A, 19B and 19C for cell line A549, Calu-3 and NCI-H292, respectively.
# [4] = tested on: A549, Calu-3, and NCI-H292 cell line; experiment: LDH release in pulmonary cell lines, statements not tied to one line; assay type: cell-based; conditions: cell lines investigated, pDNA lipoplexes
# Method: Lactate dehydrogenase (LDH) release was used to assess the cytotoxicity of the formulations used in the transfection experiments described as outlined. Typically, at the end of each transfection experiment, the culture medium was removed and placed in another 96-wells plate. LDH activity was measured using a commercial kit (Cytotoxicity Detection Kit Plus, Roche Applied Science) according to the manufacturer's instructions. LDH activity was expressed as the percentage of the maximal LDH release obtained after treatment of the cells with the lysis solution kit (5 μL). Less than 10% LDH release was regarded as a measure of non-significant toxicity. Value for each sample is the mean of triplicate determinations (±SD).
# BHK-21 cells [5] = experiment: LDH release assay, BHK-21 cells
# [6] = Hydrolytic stability of liposomes by 31P-NMR; conditions: Table 3, liposomes
# Method: For hydrolysis rate measurements using ^31P-NMR, liposomes were obtained by a solvent injection technique. […] The lipids (10 μmol) were dissolved in PrOH (200 μL) and then injected with a syringe with a flow rate of ca. 600 μL/min and a stirring speed of 400 rpm into the appropriate aqueous buffer medium (either Hepes 10 mM pH 7.4 or AcOK/AcOH 10 mM pH 4.5).
# The hydrolytic stability of CPDCs/conjugates under neutral and acidic conditions was evaluated in a model experiment involving ^31P-NMR measurements. Phosphotriesters and phosphodiesters display ^31P chemical shifts differing by 5-6 ppm allowing a precise monitoring of the hydrolysis reaction. CPDCs/conjugates were formulated into liposomes using an injection technique.[47] Liposomes were prepared at pH 7.4 and pH 4.5, and incubated at 37° C. and hydrolysis was monitored by ^31P-NMR measurements.
# For hydrolysis rate measurements involving ^31P-NMR spectoscopy and BET intercallation assays, liposomes were prepared by a solvent injection technique. A dry lipid film (10 μmol) was dissolved in i-PrOH (200 μL) and then injected with a syringe (flow rate: 600 μL/min) under stirring (stirring speed: 400 rpm) in the middle of the appropriate aqueous buffer medium (either Hepes 10 mM, pH 7.4 or AcOK/AcOH 10 mM, pH 4.5), at 22° C.
# The cationic lipids were formulated into liposomes using an injection technique as described hereabove. Liposomes were prepared at pH 7.4 and pH 4.5, and incubated at 37° C. Periodical acquisition of ^31P-NMR spectra allowed determination of the time t, required for 50% hydrolysis (Table 3).
# U87-Luc cells = experiment: siRNA transfection, luciferase gene silencing; assay type: cell-based, human; design: Percentage of residual luciferase expression, Control siRNA, N/P: 25 / Percentage of residual luciferase expression, Control siRNA, N/P: 50 / Percentage of residual luciferase expression, Control siRNA, N/P: 100: concentration or dose not given beside the values; conditions: for luciferase silencing / siRNA transfection activity, in words: U87-Luc cells, siLuc vs control siRNA, 48 h, 10% FBS
# U87Luc cells = experiment: LDH release assay, U87Luc cells; assay type: cell-based, human
# BHK-21 cells [7] = tested on: BHK-21 cells
# Sheep erythrocytes = experiment: Erythrocyte leakage (hemolysis) assay; assay type: cell-based; conditions: 2 h, 37° C.
# Method: Hemolysis experiments were carried out according to a procedure described elsewhere. For recovery from washing steps, sheep red blood cells were centrifuged at 400 RCF for 10 min, and washed three times with 150 mM NaCl. […] Complete hemolysis was achieved using deionized water yielding the 100% control value. The negative control was obtained by suspension of RBC in phosphate buffer alone. The experiments were performed in triplicate.
# 16HBE cells = experiment: Cell mitochondrial activity (MTT assay); assay type: cell-based; conditions: 48 h
# Method: Cells were grown in culture flasks (Becton-Dickinson) with DMEM culture medium supplemented with 10% FBS, 100 U/mL penicillin, 100 mg/mL streptomycin, 2 mM L-glutamine, and 5 mM Hepes. Culture was carried out at 37° C., in a 5% CO2 and humidified atmosphere. At confluence, cells were released with trypsin (0.5% in PBS), counted and transferred into a 96-well plate (Becton-Dickinson) at a density of 6,000 cells/well. On the next day (24 h later), culture medium was changed to fresh DMEM medium supplemented with 10% FBS before addition of lipoplexes (100 μL) prepared as described above. After a 48 h incubation period at 37° C., culture supernatant was removed, cells were carefully washed with PBS and 0.5 mg/mL MTT (1 mL) in complete culture medium was added. After a 2 h incubation period at 37° C., MTT solution was removed and DMSO (1 mL) was added to lyse cells and dissolve reduced MTT. Intensity of MTT reduction was then evaluated by measuring absorbance at 570 nm. Viability of cells treated with lipoplexes was expressed as the percentage of the absorbance measured in untreated cells. Value for each sample is the mean of triplicate determinations (±SD).
compound,measurement,setting,value
"1,2-Dioleoyl-sn-glycero-3-{1-[(dodecyloxycarbonyl)oxy]-2-methylpropyl}phosphocholine chloride [PP178]",Particle size (nm),[1],721.8 ± 65.7 nm
same,Zeta potential (mV),[1],+48.5 mV
same,"pDNA transfection efficiency, in words",BHK-21 cells [2],more effective than control phospholipid EDOPC
same,"pDNA transfection activity, in words",[3],highest cell transfection levels
same,"LDH release / cell toxicity, in words",[4],significant LDH release
same,LDH release,"BHK-21 cells [5]; BHK-21, Part B pDNA lipoplexes, N/P 1, 3 and 5",11%
same,"t1/2 (h), time required for 50% hydrolysis","[6]; pH 4.5, 37° C.",498 h
same,"t1/2 (h), time required for 50% hydrolysis","[6]; pH 7.4, 37° C.",497 h
"1,2-Dioleoyl-sn-glycero-3-{1-[(dodecyloxycarbonyl)oxy]ethyl}phosphocholine chloride [PP120]",Particle size (nm),[1],819.3 ± 79.8 nm
same,Zeta potential (mV),[1],+62.9 mV
same,"pDNA transfection efficiency, in words",BHK-21 cells [2],more effective than control phospholipid EDOPC
same,"pDNA transfection activity, in words",[3],significant transfection activity
same,"LDH release / cell toxicity, in words",[4],significant LDH release
same,"t1/2 (h), time required for 50% hydrolysis","[6]; pH 4.5, 37° C.",27 h
same,"t1/2 (h), time required for 50% hydrolysis","[6]; pH 7.4, 37° C.",29 h
"1,2-Dioleoyl-sn-glycero-3-{4-[(dodecyloxy)-4-oxobutanoyloxy]methyl}phosphocholine chloride [PP93]",Particle size (nm),[1],364.3 ± 34.6 nm
same,Zeta potential (mV),[1],−18.0 mV
same,effect of helper lipid DOPE on pDNA transfection efficiency,"BHK-21 cells [2]; BHK-21, lipid/DOPE mixtures, 1:1 molar ratio",unable to assist DNA transfection when mixed with DOPE
same,"pDNA transfection activity, in words",[3],significant transfection activity
CCCCCCCCC=CCCCCCCCC(=O)OCC(COP(=O)(OCCCCCCCCCCCC)OCC[N+](C)(C)C)OC(=O)CCCCCCCC=CCCCCCCCC (mixture of isomers) [PP514],"Percentage of residual luciferase expression, Control siRNA, N/P: 25","U87-Luc cells; Table 8, N/P 25",100.51%
same,"Percentage of residual luciferase expression, Luc-targeting siRNA, N/P: 25","U87-Luc cells; Table 8, N/P 25",103.75%
same,"Percentage of residual luciferase expression, Control siRNA, N/P: 50","U87-Luc cells; Table 8, N/P 50",98.50%
same,"Percentage of residual luciferase expression, Luc-targeting siRNA, N/P: 50","U87-Luc cells; Table 8, N/P 50",101.21%
same,"Percentage of residual luciferase expression, Control siRNA, N/P: 100","U87-Luc cells; Table 8, N/P 100",94.58%
same,"Percentage of residual luciferase expression, Luc-targeting siRNA, N/P: 100","U87-Luc cells; Table 8, N/P 100",99.76%
same,"luciferase silencing / siRNA transfection activity, in words",U87-Luc cells,totally inefficient to transfect siRNA
same,"pDNA transfection efficiency, in words",BHK-21 cells [2],able to transfect DNA into cells
same,"Luciferase expression (RLU/well), N/P: 1","BHK-21 cells [2]; Table 9, N/P 1",1.49 × 10^7 RLU/well
same,"Luciferase expression (RLU/well), N/P: 3","BHK-21 cells [2]; Table 9, N/P 3",1.26 × 10^7 RLU/well
same,"Luciferase expression (RLU/well), N/P: 5","BHK-21 cells [2]; Table 9, N/P 5",2.79 × 10^7 RLU/well
same,"Percentage of LDH release, Lipoplex with siRNA (U87Luc), N/P: 25","U87Luc cells; Table 10, N/P 25",−2.36%
same,"Percentage of LDH release, Lipoplex with siRNA (U87Luc), N/P: 50","U87Luc cells; Table 10, N/P 50",−3.13%
same,"Percentage of LDH release, Lipoplex with siRNA (U87Luc), N/P: 100","U87Luc cells; Table 10, N/P 100",−3.29%
same,"Percentage of LDH release, Lipoplex with pDNA (BHK-21), N/P: 1",BHK-21 cells [7],0.15%
same,"Percentage of LDH release, Lipoplex with pDNA (BHK-21), N/P: 3",BHK-21 cells [7],0.76%
same,"Percentage of LDH release, Lipoplex with pDNA (BHK-21), N/P: 5",BHK-21 cells [7],0.46%
"CCCCCCCC/C=C\CCCCCCCC(=O)OCC(C[N+](C)(C)C)OC(=O)CCCCCCC/C=C\CCCCCCCC.[Cl-] (stereo not drawn) [DOTAP, 1,2-Dioleoyloxy-3-(N,N,N-trimethylamino)propyl chloride]","luciferase silencing / siRNA transfection activity, in words",U87-Luc cells,unable to assist siRNA silencing activity
CCCCCCCCCCCCCCCC(=O)OC[C@H](COP(=O)(OCCOCCOCCOCCOCCOCCOCCOCCOCCOc1ccc(C(C)(C)CC(C)(C)C)cc1)OCC[N+](C)(C)C)OC(=O)CCCCCCCCCCCCCCC (stereo partly drawn) [PP431],"Percentage of residual luciferase expression, Control siRNA, N/P: 25","U87-Luc cells; Table 5, N/P 25",96.59%
same,"Percentage of residual luciferase expression, Luc-targeting siRNA, N/P: 25","U87-Luc cells; Table 5, N/P 25",107.08%
same,"Percentage of residual luciferase expression, Control siRNA, N/P: 50","U87-Luc cells; Table 5, N/P 50",64.76%
same,"Percentage of residual luciferase expression, Luc-targeting siRNA, N/P: 50","U87-Luc cells; Table 5, N/P 50",75.27%
same,"Percentage of residual luciferase expression, Control siRNA, N/P: 100","U87-Luc cells; Table 5, N/P 100",54.07%
same,"Percentage of residual luciferase expression, Luc-targeting siRNA, N/P: 100","U87-Luc cells; Table 5, N/P 100",54.05%
same,"Luciferase expression (RLU/well), N/P: 1","BHK-21 cells [2]; Table 6, N/P 1",4.90 × 10^5 RLU/well
same,"Luciferase expression (RLU/well), N/P: 3","BHK-21 cells [2]; Table 6, N/P 3",6.45 × 10^6 RLU/well
same,"Luciferase expression (RLU/well), N/P: 5","BHK-21 cells [2]; Table 6, N/P 5",6.75 × 10^6 RLU/well
same,"Percentage of LDH release, Lipoplex with siRNA (U87Luc), N/P: 25","U87Luc cells; Table 7, N/P 25",−1.94%
same,"Percentage of LDH release, Lipoplex with siRNA (U87Luc), N/P: 50","U87Luc cells; Table 7, N/P 50",−1.83%
same,"Percentage of LDH release, Lipoplex with siRNA (U87Luc), N/P: 100","U87Luc cells; Table 7, N/P 100",4.24%
same,"Percentage of LDH release, Lipoplex with pDNA (BHK-21), N/P: 1","BHK-21 cells [5]; Table 7, N/P 1",−0.09%
same,"Percentage of LDH release, Lipoplex with pDNA (BHK-21), N/P: 3","BHK-21 cells [5]; Table 7, N/P 3",5.25%
same,"Percentage of LDH release, Lipoplex with pDNA (BHK-21), N/P: 5","BHK-21 cells [5]; Table 7, N/P 5",2.38%
Triton X-100 [TX100],concentration achieving full membrane permeation to hemoglobin,Sheep erythrocytes,200 µM and 150 to 200 µM
same,concentration enough to decrease cell viability,16HBE cells,20 to 40 µM
